Results: PMC8901119 (Chemical Science, 2021)
“And” between values parts separate entries of the source, which are not always exact repeats. Equal entries are not always repeated. “Also recorded” adds a separate entry of the source. One block for each molecule: values may come before it. Starred links: 1 amine or outer side, 2 acyl side, 3 side chain; linkers in the order of their positions; H or OH if unused. Non-standard residues stand in square brackets, D forms with d. Residues, ends and D or L forms follow the SMILES beside them. Ala(7-MeO-coumarin-4-yl) = COc1ccc2c(C[C@H](N)C(=O)O)cc(=O)oc2c1; X1 = C[C@H](NC(=S)[C@H](CCCNC(=N)N)N[*:1])C(=O)[*:2]

Assays:
HepG2 whole cell lysate = conditions: human, 37 °C, up to 24 hours
[1] = HepG2 whole cell lysate in CL assay buffer; conditions: human, 37 °C, up to 30 minutes (R1A); 24 hours (RS1A)
cathepsin B (Cts B) = conditions: human, 27 °C, up to 100 min
Cts V = target: T1, Cts V (Homo sapiens, UniProt O60911); assay: Cathepsin V inhibition assay with Z-LR-AMC; type: biochemical; conditions: pH 5.5, 27 °C, approximate
T1 construct: purchased Sigma-Aldrich; host or cells: FreeStyle 293-F cells
T1 sequence (O60911 114-334): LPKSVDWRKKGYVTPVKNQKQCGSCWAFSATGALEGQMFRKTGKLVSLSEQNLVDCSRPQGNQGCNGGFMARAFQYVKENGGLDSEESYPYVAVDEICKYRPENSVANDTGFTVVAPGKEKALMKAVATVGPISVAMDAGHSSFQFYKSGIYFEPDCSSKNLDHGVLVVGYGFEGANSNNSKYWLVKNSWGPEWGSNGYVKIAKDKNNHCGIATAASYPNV
Description: (§1) Phan et al. Electronic SupplementaryInformation
Cathepsin V Inhibition Assay. For cathepsin V (Cts V, 0.38 mg/mL, solution; recombinant, expressed in FreeStyle™ 293-F cells, ≥90% pure by SDS-PAGE), various concentrations of the […]
A stock solution of 0.35 mg/mL enzyme
Three independent trials were
Similar to the analysis with Cts L, these curves
CA) using Eq. S1 to determine Vmax and KM (Table S19). 5 Turnover number (k cat) was calculated by dividing V max by the enzyme concentration (Table S19).
(§2) Similar analysis was done for Cts V, Cts K, Cts S, and Cts B to evaluate and approximate the inhibitory effects of the thiopeptide RS1A. Initial evaluation of the kinetic parameters were obtained […]
(§3) 24), then the data were further analyzed with the non-linear regression method with a mixed - […]
(§4) the mechanism with the parameter α. Further fitting to an appropriate model (e.g. uncompetitive, competitive, or non-competitive model) was performed if needed. The approximate kinetic parameters resulted from best fit models for the RS1A peptide and the corresponding proteases are […]
(§5) Table S24. Approximate Kinetic Parameters for Cts L, V, K, S, and B Inhibition by R S1A Peptide (μHLFR SAμ).
(§6) Protease α (Best Fitted Model) KI (μM) αKI or KI'
(§7) Cts S Very large (Competitive) 53.47 ± 11.42 - Cts B Very large (Competitive) >> 50 -

[2] = Stability of peptides in HepG2 whole cell lysate; type: in vitro ADME; conditions: human, 20 μM peptide, 0.05 mg/mL lysate, HPLC
Description: Stability of Peptides in HepG2 Whole Cell Lysate
Using the same conditions as the previous Cts L Activity Assay in HepG2 Whole Cell Lysate, 50 μL peptide (either R1A or RS1A; final concentration 20 μM) was incubated in 50 μL HepG2 whole cell lysate (to a final concentration of 0.05 mg/mL) in the assay buffer for different time points.
The all-amide peptide, R 1A, was incubated for t = 0, 5, 10, 15, 20, and 30 minutes. The thioamide peptide, RS1A, was incubated for t = 0, 2, 6, 8, 10, and 24 hours. After incubation for the desired amount of time, 100 μL methanol was added to the mixture and incubated at -20 °C for 10 minutes before spinning down at 13,000 rpm for 10 minutes. Then, 180 μL of each mixture was further diluted with 220 μL Milli-Q water to a total volume of 400 μL before adding 1 μL 0.42 mM coumarin internal standard for HPLC analysis. The coumarin internal standard was used to normalize the amount of intact peptide in each sample. A Phenomenex Luna® Omega 5 µm PS C18 100 Å analytical column was used to analyze all samples using the same gradient of 20-40 % B over 20 minutes (Solvent A: 0.1% TFA in Milli-Q water; Solvent B: 0.1% TFA in acetonitrile).
Representative HPLC spectra (325 nm) at different time points were also shown to confirm the stability of the peptides in HepG2 whole cell lysate (Figure S26 A & B). MALDI MS was used to confirm the mass from each fraction from the HPLC from experiment with the all-amide peptide (R 1A – expected [M+H]+ = 1133.51 m/z) and the thioamide peptide ( RS1A – expected [M+H]+ = 1149.48 m/z). To calculate the percent intact peptide for each sample, the average ratio of intact peptide to internal standard was compared to that ratio at t = 0. For each time point, the experiment

Cts L [3] = target: T2, Cts L (Homo sapiens, UniProt P07711); assay: Cathepsin L activity assay with HepG2 whole cell lysate; type: biochemical; set-up: Cts L activity in human hepatocellular carcinoma HepG2 whole cell lysate; host or cells: HepG2 whole cell lysate; conditions: 0.05 mg/mL lysate, 200 μM Ac-FR-AFC, 37 °C, 1 h
T2 sequence (P07711 114-333): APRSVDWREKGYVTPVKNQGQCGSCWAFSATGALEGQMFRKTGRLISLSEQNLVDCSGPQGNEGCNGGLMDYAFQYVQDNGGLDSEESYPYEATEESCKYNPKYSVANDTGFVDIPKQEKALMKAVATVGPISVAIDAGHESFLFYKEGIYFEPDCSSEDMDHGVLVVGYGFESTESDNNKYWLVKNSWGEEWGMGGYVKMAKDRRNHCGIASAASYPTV
Description: Cts L activity in human hepatocellular carcinoma HepG2 whole cell lysate (200 μg at 2.5 mg mL^−1; ab166833; Abcam, Cambridge, MA) was evaluated using a fluorometric Cathepsin L Activity Assay Kit (ab65306; Abcam, Cambridge, MA, USA) following the manufacturer's protocols. […] The cell lysate and the peptide inhibitor were incubated at room temperature for 10 min. A total of 2 μL of 10 mM CL substrate Ac-FR-AFC substrate (to a final concentration of 200 μM) was then added to each well, except the Lysate Background Control wells. Different concentrations (56 nM, 560 nM, and 1 μM) of SID 26681509, a known Cts L inhibitor, were used as positive controls. The samples were mixed; the plate was sealed to avoid evaporation and incubated at 37 °C for 1 h. The fluorescence of each sample was measured at 505 nm with an excitation wavelength of 400 nm on the Tecan plate reader. […]
Cts L activity in human hepatocellular carcinoma HepG2 whole cell lysate (200 µg at 2.5 mg/ml; ab166833; Abcam, Cambridge, MA, USA) was evaluated using a fluorometric Cathepsin L Activity Assay Kit (ab65306; Abcam) following the manufacturer’s protocols. […] The fluorescence of each sample was measured […]
fluorescence data shown in Figure 4 in the main text are the average of three replicates. […]

Cts S = target: T3, Cts S (Homo sapiens, UniProt P25774); assay: Cathepsin S inhibition assay with Z-LR-AMC; type: biochemical; conditions: approximate; competitive model
T3 construct: purchased Sigma-Aldrich; host or cells: FreeStyle 293-F cells
T3 sequence (P25774 115-331): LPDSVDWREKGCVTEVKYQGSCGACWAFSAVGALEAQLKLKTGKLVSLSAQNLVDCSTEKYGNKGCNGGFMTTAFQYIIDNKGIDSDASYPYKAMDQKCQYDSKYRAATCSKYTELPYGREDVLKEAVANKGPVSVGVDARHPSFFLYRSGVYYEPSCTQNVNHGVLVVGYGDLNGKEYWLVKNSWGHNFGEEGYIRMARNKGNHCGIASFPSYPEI
Description: as §1
Cathepsin S Inhibition Assay. For cathepsin S (Cts S, 2 mg/mL, solution; recombinant, expressed in FreeStyle™ 293-F cells, ≥90% pure by SDS-PAGE), various concentrations of the substrate Z- […]
A stock solution of 2 mg/mL enzyme in 45 mM Tris-HCl, pH 8.0, 124 mM NaCl, 2.4 mM KCl, 225 mM imidazole, 3 mM DTT, and 10% glycerol was diluted with assay buffer containing 5 mM DTT. Peptide (inhibitor) stock solutions […]
with the assay buffer. A 20 mM stock solution of the chromogenic substrate Z-LR-AMC (Bachem; […]
assay to ensure reproducibility. […]
progress curve (Figure S23). Similar to the analysis with Cts L, these curves were fit to Michaelis - Menten enzyme kinetic model in Prism 8 (GraphPad Software; La Jolla, CA) using Eq. S1 to determine Vmax and KM (Table S21). 5 Turnover number (k cat) was calculated by dividing Vmax by the enzyme concentration (Table S21).
as §2, §3
the mechanism with the parameter α. Further fitting to an appropriate model (e.g. uncompetitive, competitive, or non-competitive model) was performed if needed. […]

Cts B = target: T4, Cts B (Homo sapiens, UniProt P07858); assay: Cathepsin B inhibition assay with Z-RR-AMC; type: biochemical; conditions: approximate; competitive model
T4 construct: cathepsin B (Cts B, ≥1,500 units/mg protein, solution; from human liver); purchased Sigma-Aldrich; host or cells: human liver (tissue-purified)
Description: as §1
Cathepsin B Inhibition Assay. For cathepsin B (Cts B, ≥1,500 units/mg protein, solution; from […]
and 5 mM DTT (pH 5.5). A stock solution of enzyme in 50 mM sodium acetate, pH 5.0, with 1 […]
Diluted solution of Cts B was […]
kinetic model in Prism 8 (GraphPad Software; La Jolla, CA) using Eq. S1 to determine Vmax and KM (Table S22). 5 Turnover number (k cat) was calculated by dividing Vmax by the enzyme concentration(Table S22).
as §2, §3, §4, §5, §6, §7

Cts L [4] = target: T2, Cts L; assay: Cathepsin L inhibition assay with Z-FR-AMC; conditions: Cts L, mixed inhibition model fit, Z-FR-AMC, pH 5.5, 27 °C

fragment found (HepG2 whole cell lysate): μHLFR, 5 mins; also recorded: Aμ, 5 mins
fragment found [1]: µHLFR; Aµ, 5 mins
cleaved bond (cathepsin B (Cts B)): R-A
Molecule: μHLFRAμ (H-[Ala(7-MeO-coumarin-4-yl)]HLFRA[Ala(7-MeO-coumarin-4-yl)]-OH; SMILES COc1ccc2c(C[C@H](NC(=O)[C@H](C)NC(=O)[C@H](CCCNC(=N)N)NC(=O)[C@H](Cc3ccccc3)NC(=O)[C@H](CC(C)C)NC(=O)[C@H](Cc3c[nH]cn3)NC(=O)[C@@H](N)Cc3cc(=O)oc4cc(OC)ccc34)C(=O)O)cc(=O)oc2c1)

Ki (Cts V): 26.2 ± 8.42 µM
half-life at 20 μM [2]: 28.6 h
IC50 (Cts L [3]): 19 µM and 19.3 µM
Molecule: COc1ccc2c(C[C@H](NC(=O)[C@H](C)NC(=S)[C@H](CCCNC(=N)N)NC(=O)[C@H](Cc3ccccc3)NC(=O)[C@H](CC(C)C)NC(=O)[C@H](Cc3c[nH]cn3)NC(=O)[C@@H](N)Cc3cc(=O)oc4cc(OC)ccc34)C(=O)O)cc(=O)oc2c1 [R^S1A] (H-[Ala(7-MeO-coumarin-4-yl)]HLF[X1][Ala(7-MeO-coumarin-4-yl)]-OH)

Ki (Cts S): 53.5 ± 11.4 µM
Ki (Cts B): > 50 µM
Ki (Cts L [4]): 1.11 ± 0.22 µM
Molecule: COc1ccc2c(C[C@H](NC(=O)[C@H](C)NC(=S)[C@H](CCCNC(=N)N)NC(=O)[C@H](Cc3ccccc3)NC(=O)[C@H](CC(C)C)NC(=O)[C@H](Cc3c[nH]cn3)NC(=O)[C@@H](N)Cc3cc(=O)oc4cc(OC)ccc34)C(=O)O)cc(=O)oc2c1 [RS1A] (H-[Ala(7-MeO-coumarin-4-yl)]HLF[X1][Ala(7-MeO-coumarin-4-yl)]-OH)
